# Reference: ChEMBL document CHEMBL5543084, “Development of cannabidiol derivatives as potent broad-spectrum antibacterial agents with membrane-disruptive mechanism” (Eur J Med Chem, 2024)
# Experiments:
# [1] = test system: Pseudomonas aeruginosa; assay: In vivo antibacterial activity against Pseudomonas aeruginosa ATCC 9027 infected C57BL6 mouse corneal infection model assessed as reduction in bacterial burden at 3 mg/ml, TOP 4 times in a day for 2 consecutive days; type: functional; conditions: time 2 day
# [2] = test system: Staphylococcus aureus; assay: In vivo antibacterial activity against Staphylococcus aureus ATCC 29213 infected C57BL6 mouse corneal infection model assessed as reduction in bacterial burden at 50 mg/ml, TOP 4 times in a day for 3 consecutive days; type: functional; conditions: time 3 day
# [3] = test system: Escherichia coli; assay: Antibacterial activity against Escherichia coli ATCC 25922 assessed as inhibition of bacterial growth incubated for 24 hrs by broth dilution method; type: functional
# [4] = test system: Staphylococcus aureus; assay: Drug resistance, ratio of MIC for Staphylococcus aureus NCTC 10442 after 21 passages to MIC for Staphylococcus aureus NCTC 10442 during first exposure; type: functional
# [5] = test system: Escherichia coli; assay: Bactericidal activity against Escherichia coli ATCC 25922 assessed as bacterial reduction at 8 time of MIC concentration incubated for 2 hrs by time-kill assay; type: functional
# [6] = Hemolytic activity against rabbit blood cells incubated for 1 hr relative to control; type: toxicity, cell-based, Oryctolagus cuniculus, Erythrocyte; conditions: rabbit blood cells (erythrocytes)
# [7] = test system: Klebsiella pneumoniae; assay: Antibacterial activity against Klebsiella pneumoniae ATCC 14581 assessed as inhibition of bacterial growth incubated for 24 hrs by broth dilution method; type: functional
# [8] = test system: Acinetobacter baumannii; assay: Antibacterial activity against Acinetobacter baumannii ATCC 17978 assessed as inhibition of bacterial growth incubated for 24 hrs by broth dilution method; type: functional
# [9] = test system: Acinetobacter baumannii; assay: Antibacterial activity against Acinetobacter baumannii R2889 assessed as inhibition of bacterial growth incubated for 24 hrs by broth dilution method; type: functional
# [10] = test system: Pseudomonas aeruginosa; assay: Antibacterial activity against Pseudomonas aeruginosa ATCC 9027 assessed as inhibition of bacterial growth incubated for 24 hrs by broth dilution method; type: functional
# [11] = test system: Klebsiella pneumoniae; assay: Antibacterial activity against Klebsiella pneumoniae ATCC 10031 assessed as inhibition of bacterial growth incubated for 24 hrs by broth dilution method; type: functional
# [12] = test system: Staphylococcus aureus; assay: Antibacterial activity against methicillin-resistant Staphylococcus aureus N315 assessed as inhibition of bacterial growth incubated for 24 hrs by broth dilution method; type: functional
# [13] = test system: Staphylococcus aureus; assay: Antibacterial activity against Staphylococcus aureus ATCC 29213 assessed as inhibition of bacterial growth incubated for 24 hrs by broth dilution method; type: functional
# [14] = test system: Staphylococcus aureus; assay: Antibacterial activity against methicillin-resistant Staphylococcus aureus NCTC 10442 assessed as inhibition of bacterial growth incubated for 24 hrs by broth dilution method; type: functional
SMILES,Activity [1] [log10FFU/ml],Activity [2] [log10FFU/ml],MIC [3] [µg/mL],Ratio [4],Activity [5] [log10FFU/ml],HC50 at 1 h [6] [µg/mL],MIC [7] [µg/mL],MIC [8] [µg/mL],MIC [9] [µg/mL],MIC [10] [µg/mL],MIC [11] [µg/mL],MIC [12] [µg/mL],MIC [13] [µg/mL],MIC [14] [µg/mL]
NC[C@H]1O[C@H](O[C@H]2[C@H](O)[C@@H](O[C@H]3O[C@H](CO)[C@@H](O)[C@H](N)[C@H]3O)[C@H](N)C[C@@H]2N)[C@H](N)C[C@@H]1O [TOBRAMYCIN],4.64,5.21,–,–,–,–,–,–,–,–,–,–,–,–
CC1(C)S[C@@H]2[C@H](NC(=O)[C@H](N)c3ccc(O)cc3)C(=O)N2[C@H]1C(=O)O [AMOXICILLIN],–,–,6.25,8,2.9,> 200,–,–,–,–,–,–,–,–
CCn1cc(C(=O)O)c(=O)c2cc(F)c(N3CCNCC3)cc21 [NORFLOXACIN],–,–,–,128,–,–,–,–,–,–,–,–,–,–
C=C(C)[C@@H]1CCC(C)=C[C@H]1c1c(OCC(=O)N[C@@H](CCCCN)C(=O)OC)cc(CCCCC)cc1OCC(=O)N[C@@H](CCCCN)C(=O)OC,–,–,50,–,–,116,> 50,50,50,> 50,50,25,25,25
C=C(C)[C@@H]1CCC(C)=C[C@H]1c1c(OCCCCN(C)C)cc(CCCCC)cc1OCCCCN(C)C,–,–,6.25,–,–,132,6.25,6.25,6.25,50,6.25,3.12,3.12,6.25
C=C(C)[C@@H]1CCC(C)=C[C@H]1c1c(OCCCCCBr)cc(CCCCC)cc1OCCCCCBr,–,–,> 50,–,–,> 200,> 50,> 50,> 50,> 50,> 50,> 50,> 50,> 50
C=C(C)[C@@H]1CCC(C)=C[C@H]1c1c(OCCCCN2CCSCC2)cc(CCCCC)cc1OCCCCN1CCSCC1,–,–,> 100,–,–,> 200,> 50,> 50,> 50,> 50,> 50,> 50,> 50,> 50
C=C(C)[C@@H]1CCC(C)=C[C@H]1c1c(OCCCCCCCCCCBr)cc(CCCCC)cc1OCCCCCCCCCCBr,–,–,> 50,–,–,> 200,> 50,> 50,> 50,> 50,> 50,> 50,> 50,> 50
C=C(C)[C@@H]1CCC(C)=C[C@H]1c1c(OCCCCNCCC)cc(CCCCC)cc1OCCCCNCCC,–,–,25,–,–,79.3,25,12.5,12.5,> 50,12.5,3.12,3.12,1.56
C=C(C)[C@@H]1CCC(C)=C[C@H]1c1c(OCC(=O)N[C@@H](CCCNC(=N)N)C(=O)N[C@@H](CCCNC(=N)N)C(=O)OC)cc(CCCCC)cc1OCC(=O)N[C@@H](CCCNC(=N)N)C(=O)N[C@@H](CCCNC(=N)N)C(=O)OC,–,–,50,–,–,> 200,> 50,25,50,50,50,1.56,1.56,1.56
C=C(C)[C@@H]1CCC(C)=C[C@H]1c1c(OCCCCN(C)CCCN(C)CCCNC)cc(CCCCC)cc1OCCCCN(C)CCCN(C)CCCNC,–,–,3.12,–,–,> 200,6.25,6.25,3.12,6.25,6.25,3.12,1.56,1.56
C=C(C)[C@@H]1CCC(C)=C[C@H]1c1c(OCCCCN(CCCC)CCCC)cc(CCCCC)cc1OCCCCN(CCCC)CCCC,–,–,> 100,–,–,> 200,> 50,> 50,> 50,> 50,> 50,> 50,> 50,> 50
C=C(C)[C@@H]1CCC(C)=C[C@H]1c1c(OCC(=O)OCC)cc(CCCCC)cc1OCC(=O)OCC,–,–,> 100,–,–,> 200,> 50,> 50,> 50,> 50,> 50,> 50,> 50,> 50
